Test results from ChEMBL document CHEMBL1201862, “PubChem BioAssay data set” (2004).
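96-well plates; 48 h exposure; 5 concentrations. Endpoints by linear interpolation between flanking doses. Not reached: highest tested concentration assigned. GI50 marks 50% less growth.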 The source made the active and inactive calls. No stated cut-off is given here; in the data, active = GI50 up to about 1.1 µM and inactive = higher.

Legend:
Test in all cases: DTP human tumour cell line panel, 48 h
[1] = test system: CCRF-CEM
[2] = test system: HCT-15
[3] = test system: SF-539
[4] = test system: IGROV-1
[5] = test system: SK-MEL-2
[6] = test system: SF-268
[7] = test system: OVCAR-8
[8] = test system: SK-OV-3
[9] = test system: SW-620
[10] = test system: HOP-62
[11] = test system: EKVX
[12] = test system: OVCAR-3
[13] = test system: SK-MEL-28
[14] = test system: COLO 205
[15] = test system: HT-29
[16] = test system: NCI-H460
[17] = test system: RXF 393
[18] = test system: HCT-116
[19] = test system: UACC-257
[20] = test system: KM12

SMILES | GI50 [1] | GI50 [2] [µM] | GI50 [3] | GI50 [4] | GI50 [5] | GI50 [6] | GI50 [7] | GI50 [8] | GI50 [9] | GI50 [10] | GI50 [11] | GI50 [12] | GI50 [13] | GI50 [14] | GI50 [15] | GI50 [16] | GI50 [17] | GI50 [18] | GI50 [19] | GI50 [20]
CC1=NC(C(=O)O)Cc2c1[nH]c1ccccc21 (stereo not given) | > 100 µM (inactive) | > 100 | > 100 µM (inactive) | > 100 µM (inactive) | > 100 µM (inactive) | > 100 µM (inactive) | > 100 µM (inactive) | > 100 µM (inactive) | > 100 µM (inactive) | < 0.01 µM (active) | > 100 µM (inactive) | > 100 µM (inactive) | > 100 µM (inactive) | > 100 µM (inactive) | > 100 µM (inactive) | > 100 µM (inactive) | – | – | – | –
O=C1NC2(CCCCC2)C2CCCCCC12 (stereo not given) | – | > 100 | > 100 µM (inactive) | > 100 µM (inactive) | – | > 100 µM (inactive) | – | > 100 µM (inactive) | > 100 µM (inactive) | > 100 µM (inactive) | > 100 µM (inactive) | > 100 µM (inactive) | > 100 µM (inactive) | – | > 100 µM (inactive) | > 100 µM (inactive) | > 100 µM (inactive) | > 100 µM (inactive) | > 100 µM (inactive) | > 100 µM (inactive)
O=C1CN(c2ccccc2)C(=O)C1C(=O)Nc1ccc(Cl)c(Cl)c1 (stereo not given) | 1.84 µM (inactive) | 1.56 | 3.85 µM (inactive) | 2.33 µM (inactive) | – | 6.32 µM (inactive) | – | 5.19 µM (inactive) | 1.21 µM (inactive) | 2.22 µM (inactive) | – | 3.15 µM (inactive) | 7.43 µM (inactive) | 8.07 µM (inactive) | 3.68 µM (inactive) | – | – | – | 8.28 µM (inactive) | –
CO/C(=N/N1CC1C(F)(F)F)c1ccncc1 (stereo not given) | 88.1 µM (inactive) | > 100 | – | > 100 µM (inactive) | > 100 µM (inactive) | – | > 100 µM (inactive) | 54.7 µM (inactive) | – | > 100 µM (inactive) | – | > 100 µM (inactive) | > 100 µM (inactive) | > 100 µM (inactive) | > 100 µM (inactive) | > 100 µM (inactive) | 45.1 µM (inactive) | > 100 µM (inactive) | – | > 100 µM (inactive)
Cc1ccc([N+](=O)[O-])cc1/N=N/C(=O)NNc1cc([N+](=O)[O-])ccc1C | 10 µM (inactive) | 21.7 | – | > 10 µM (inactive) | 24 µM (inactive) | – | 27 µM (inactive) | 11.1 µM (inactive) | – | 26.4 µM (inactive) | – | 18.1 µM (inactive) | 26.8 µM (inactive) | 33.1 µM (inactive) | 21.9 µM (inactive) | > 10 µM (inactive) | 18.1 µM (inactive) | 17.7 µM (inactive) | – | 23.4 µM (inactive)
COc1cc2c(cc1OC)C(Cl)C(c1cc(OC)c(OC)c(OC)c1)=C2Cl (stereo not given) | 4.67 µM (inactive) | 14.6 | 13.8 µM (inactive) | 24 µM (inactive) | 15.5 µM (inactive) | 16.6 µM (inactive) | 17.5 µM (inactive) | 28.4 µM (inactive) | 18.8 µM (inactive) | – | 19.1 µM (inactive) | 17.1 µM (inactive) | 16.4 µM (inactive) | 17.5 µM (inactive) | 14.4 µM (inactive) | 14.4 µM (inactive) | – | – | – | –
c1ccc(/N=C2/SC3=Nc4cccc5cccc(c45)N3/C2=N/c2ccccc2)cc1 | 54.1 µM (inactive) | > 100 | – | > 100 µM (inactive) | > 100 µM (inactive) | – | > 100 µM (inactive) | > 100 µM (inactive) | – | > 100 µM (inactive) | – | > 100 µM (inactive) | > 100 µM (inactive) | > 100 µM (inactive) | > 100 µM (inactive) | > 100 µM (inactive) | > 100 µM (inactive) | > 10 µM (inactive) | – | > 100 µM (inactive)
